From ChEMBL document CHEMBL3046897, “Synthesis of 3-{4-[4-dimethylamino-6-(4-methyl-2-oxo-2H-chromen-7-yloxy)-[1,3,5]triazin-2-ylamino]-phenyl}-2-phenyl-5-(4-pyridin-2-yl-piperazin-1-ylmethyl)-thiazolidin-4-one and their biological evaluation” (2012)
Values after ≈ are worked out from the molar mass of the structure shown.

Tests used:
Assay type in all cases: functional
[1] = tested on: Bacillus subtilis; experiment: Antibacterial activity against Bacillus subtilis after 24 hr by agar streak dilution method
[2] = tested on: Candida albicans; experiment: Antifungal activity against Candida albicans after 48 hr by agar streak dilution method
[3] = tested on: Candida albicans; experiment: Antifungal activity against Candida albicans at 100 ug/disk after 48 hr by paper disk diffusion method; details: read-out: IZ
[4] = tested on: Aspergillus niger; experiment: Antifungal activity against Aspergillus niger at 100 ug/disk after 48 hr by paper disk diffusion method; details: read-out: IZ
[5] = tested on: Pseudomonas aeruginosa; experiment: Antibacterial activity against Pseudomonas aeruginosa after 24 hr by agar streak dilution method
[6] = tested on: Pseudomonas aeruginosa; experiment: Antibacterial activity against Pseudomonas aeruginosa at 100 ug/disk after 24 hr by paper disk diffusion method; details: read-out: IZ
[7] = tested on: Staphylococcus aureus; experiment: Antibacterial activity against Staphylococcus aureus after 24 hr by agar streak dilution method
[8] = tested on: Escherichia coli; experiment: Antibacterial activity against Escherichia coli after 24 hr by agar streak dilution method
[9] = tested on: Aspergillus clavatus; experiment: Antifungal activity against Aspergillus clavatus after 48 hr by agar streak dilution method
[10] = tested on: Proteus vulgaris; experiment: Antibacterial activity against Proteus vulgaris after 24 hr by agar streak dilution method
[11] = tested on: Aspergillus niger; experiment: Antifungal activity against Aspergillus niger after 48 hr by agar streak dilution method
[12] = tested on: Salmonella typhi; experiment: Antibacterial activity against Salmonella enterica subsp. enterica serovar Typhi at 100 ug/disk after 24 hr by paper disk diffusion method; details: read-out: IZ
[13] = tested on: Aspergillus fumigatus; experiment: Antifungal activity against Aspergillus fumigatus at 100 ug/disc after 48 hr by paper disk diffusion method; details: read-out: IZ
[14] = tested on: Proteus vulgaris; experiment: Antibacterial activity against Proteus vulgaris at 100 ug/disk after 24 hr by paper disk diffusion method; details: read-out: IZ
[15] = tested on: Aspergillus fumigatus; experiment: Antifungal activity against Aspergillus fumigatus after 48 hr by agar streak dilution method
[16] = tested on: Shigella flexneri; experiment: Antibacterial activity against Shigella flexneri after 24 hr by agar streak dilution method
[17] = tested on: Klebsiella pneumoniae; experiment: Antibacterial activity against Klebsiella pneumoniae at 100 ug/disk after 24 hr by paper disk diffusion method; details: read-out: IZ
[18] = tested on: Bacillus subtilis; experiment: Antibacterial activity against Bacillus subtilis at 100 ug/disk after 24 hr by paper disk diffusion method; details: read-out: IZ
[19] = tested on: Staphylococcus aureus; experiment: Antibacterial activity against Staphylococcus aureus at 100 ug/disc after 24 hr by paper disk diffusion method; details: read-out: IZ
[20] = tested on: Klebsiella pneumoniae; experiment: Antibacterial activity against Klebsiella pneumoniae after 24 hr by agar streak dilution method
[21] = tested on: Escherichia coli; experiment: Antibacterial activity against Escherichia coli at 100 ug/disk after 24 hr by paper disk diffusion method; details: read-out: IZ
[22] = tested on: Aspergillus clavatus; experiment: Antifungal activity against Aspergillus clavatus at 100 ug/disc after 48 hr by paper disk diffusion method; details: read-out: IZ
[23] = tested on: Salmonella typhi; experiment: Antibacterial activity against Salmonella enterica subsp. enterica serovar Typhi after 24 hr by agar streak dilution method
[24] = tested on: Shigella flexneri; experiment: Antibacterial activity against Shigella flexneri at 100 ug/disc after 24 hr by paper disk diffusion method; details: read-out: IZ

| Structure (SMILES) | MIC [1] [µg/mL] | MIC [2] [µg/mL] | zone of inhibition at 100 µg/disc [3] [mm] | zone of inhibition at 100 µg/disc [4] [mm] | MIC [5] [µg/mL] | zone of inhibition at 100 µg/disc [6] [mm] | MIC [7] [µg/mL] | MIC [8] [µg/mL] | MIC [9] [µg/mL] | MIC [10] [µg/mL] | MIC [11] [µg/mL] | zone of inhibition at 100 µg/disc [12] [mm] | zone of inhibition at 100 µg/disc [13] [mm] | zone of inhibition at 100 µg/disc [14] [mm] | MIC [15] [µg/mL] | MIC [16] [µg/mL] | zone of inhibition at 100 µg/disc [17] [mm] | zone of inhibition at 100 µg/disc [18] [mm] | zone of inhibition at 100 µg/disc [19] [mm] | MIC [20] [µg/mL] | further results |
| --- | --- | --- | --- | --- | --- | --- | --- | --- | --- | --- | --- | --- | --- | --- | --- | --- | --- | --- | --- | --- | --- |
| Cc1cc(=O)oc2cc(Oc3nc(Nc4ccc(N5C(=O)CSC5c5ccccc5Br)cc4)nc(N(C)C)n3)ccc12 (stereo not drawn) | 50 (≈ 77.5 µM) | 25 (≈ 38.7 µM) | 21 | 19 | 50 (≈ 77.5 µM) | 20 | 50 (≈ 77.5 µM) | 100 (≈ 155 µM) | 50 (≈ 77.5 µM) | 50 (≈ 77.5 µM) | 100 (≈ 155 µM) | 12 | 23 | 16 | 25 (≈ 38.7 µM) | 100 (≈ 155 µM) | 13 | 20 | 17 | 100 (≈ 155 µM) | zone of inhibition at 100 µg/disc [21]: 17 mm; zone of inhibition at 100 µg/disc [22]: 20 mm; MIC [23]: 100 µg/mL (≈ 155 µM); zone of inhibition at 100 µg/disc [24]: 10 mm |
| Cc1cc(=O)oc2cc(Oc3nc(Nc4ccc(N5C(=O)CSC5c5ccc([N+](=O)[O-])cc5)cc4)nc(N(C)C)n3)ccc12 (stereo not drawn) | 100 (≈ 163 µM) | 100 (≈ 163 µM) | < 10 | 12 | 100 (≈ 163 µM) | 11 | 100 (≈ 163 µM) | 100 (≈ 163 µM) | 100 (≈ 163 µM) | 100 (≈ 163 µM) | 100 (≈ 163 µM) | 16 | 13 | < 10 | 100 (≈ 163 µM) | 100 (≈ 163 µM) | 12 | 11 | 13 | 100 (≈ 163 µM) | zone of inhibition at 100 µg/disc [21]: 13 mm; zone of inhibition at 100 µg/disc [22]: 17 mm; MIC [23]: 100 µg/mL (≈ 163 µM); zone of inhibition at 100 µg/disc [24]: 11 mm |
| Cc1cc(=O)oc2cc(Oc3nc(Nc4ccc(N5C(=O)C(CN6CCN(c7ccccn7)CC6)SC5c5ccc(Cl)c(Cl)c5)cc4)nc(N(C)C)n3)ccc12 (stereo not drawn) | 25 (≈ 30.8 µM) | 100 (≈ 123 µM) | 17 | 16 | 25 (≈ 30.8 µM) | 21 | 50 (≈ 61.7 µM) | 50 (≈ 61.7 µM) | 50 (≈ 61.7 µM) | 25 (≈ 30.8 µM) | 100 (≈ 123 µM) | 20 | 18 | 20 | 50 (≈ 61.7 µM) | 50 (≈ 61.7 µM) | 19 | 21 | 19 | 50 (≈ 61.7 µM) | zone of inhibition at 100 µg/disc [21]: 18 mm; zone of inhibition at 100 µg/disc [22]: 20 mm; MIC [23]: 50 µg/mL (≈ 61.7 µM); zone of inhibition at 100 µg/disc [24]: 19 mm |
| Cc1ccc(C2SC(CN3CCN(c4ccccn4)CC3)C(=O)N2c2ccc(Nc3nc(Oc4ccc5c(C)cc(=O)oc5c4)nc(N(C)C)n3)cc2)cc1 (stereo not drawn) | 12.5 (≈ 16.5 µM) | 12.5 (≈ 16.5 µM) | 24 | 23 | 50 (≈ 66.1 µM) | 22 | 25 (≈ 33.1 µM) | 50 (≈ 66.1 µM) | 25 (≈ 33.1 µM) | 50 (≈ 66.1 µM) | 12.5 (≈ 16.5 µM) | 21 | 20 | 18 | 25 (≈ 33.1 µM) | 25 (≈ 33.1 µM) | 19 | 22 | 20 | 50 (≈ 66.1 µM) | zone of inhibition at 100 µg/disc [21]: 18 mm; zone of inhibition at 100 µg/disc [22]: 22 mm; MIC [23]: 25 µg/mL (≈ 33.1 µM); zone of inhibition at 100 µg/disc [24]: 22 mm |
| COc1ccc(C2SC(CN3CCN(c4ccccn4)CC3)C(=O)N2c2ccc(Nc3nc(Oc4ccc5c(C)cc(=O)oc5c4)nc(N(C)C)n3)cc2)cc1OC (stereo not drawn) | 50 (≈ 62.3 µM) | 100 (≈ 125 µM) | < 10 | 19 | 100 (≈ 125 µM) | 15 | 25 (≈ 31.2 µM) | 100 (≈ 125 µM) | 50 (≈ 62.3 µM) | 100 (≈ 125 µM) | 50 (≈ 62.3 µM) | 17 | 13 | 15 | 100 (≈ 125 µM) | 50 (≈ 62.3 µM) | 11 | 17 | 20 | 100 (≈ 125 µM) | zone of inhibition at 100 µg/disc [21]: 13 mm; zone of inhibition at 100 µg/disc [22]: 17 mm; MIC [23]: 50 µg/mL (≈ 62.3 µM); zone of inhibition at 100 µg/disc [24]: 19 mm |
| Cc1cc(=O)oc2cc(Oc3nc(Nc4ccc(N5C(=O)C(CN6CCN(c7ccccn7)CC6)SC5c5ccccc5Br)cc4)nc(N(C)C)n3)ccc12 (stereo not drawn) | 25 (≈ 30.5 µM) | 12.5 (≈ 15.2 µM) | 25 | 25 | 25 (≈ 30.5 µM) | 22 | 50 (≈ 60.9 µM) | 50 (≈ 60.9 µM) | 12.5 (≈ 15.2 µM) | 50 (≈ 60.9 µM) | 25 (≈ 30.5 µM) | 14 | 27 | 19 | 6.25 (≈ 7.61 µM) | 100 (≈ 122 µM) | 17 | 22 | 20 | 50 (≈ 60.9 µM) | zone of inhibition at 100 µg/disc [21]: 20 mm; zone of inhibition at 100 µg/disc [22]: 23 mm; MIC [23]: 100 µg/mL (≈ 122 µM); zone of inhibition at 100 µg/disc [24]: 15 mm |
| Cc1cc(=O)oc2cc(Oc3nc(Nc4ccc(N5C(=O)C(CN6CCN(c7ccccn7)CC6)SC5c5cccc(F)c5)cc4)nc(N(C)C)n3)ccc12 (stereo not drawn) | 12.5 (≈ 16.5 µM) | 12.5 (≈ 16.5 µM) | 21 | 23 | 25 (≈ 32.9 µM) | 21 | 25 (≈ 32.9 µM) | 6.25 (≈ 8.23 µM) | 12.5 (≈ 16.5 µM) | 50 (≈ 65.8 µM) | 12.5 (≈ 16.5 µM) | 23 | 19 | 21 | 25 (≈ 32.9 µM) | 12.5 (≈ 16.5 µM) | 20 | 21 | 19 | 50 (≈ 65.8 µM) | zone of inhibition at 100 µg/disc [21]: 28 mm; zone of inhibition at 100 µg/disc [22]: 25 mm; MIC [23]: 25 µg/mL (≈ 32.9 µM); zone of inhibition at 100 µg/disc [24]: 25 mm |
